We go through 13 compounds from ChEMBL document CHEMBL5465560, “Selectivity Literature for EUbOPEN Chemogenomic Library” (2024).

SMILES strings stand for the structures. pIC50: −log10 of the molar value.

Assay [1] addresses Cyclin-dependent kinase 5/CDK5 activator 1 (Homo sapiens) (UniProt Q00535+Q15078). The assay can be described thus: Selectivity interaction (ProQinase) EUB0000171b CDK5. The class given is protein-complex assay.
For assay [2], the target named is T1, Homeodomain-interacting protein kinase 4 (Homo sapiens) (UniProt Q8NE63).
T1 sequence (whole entry): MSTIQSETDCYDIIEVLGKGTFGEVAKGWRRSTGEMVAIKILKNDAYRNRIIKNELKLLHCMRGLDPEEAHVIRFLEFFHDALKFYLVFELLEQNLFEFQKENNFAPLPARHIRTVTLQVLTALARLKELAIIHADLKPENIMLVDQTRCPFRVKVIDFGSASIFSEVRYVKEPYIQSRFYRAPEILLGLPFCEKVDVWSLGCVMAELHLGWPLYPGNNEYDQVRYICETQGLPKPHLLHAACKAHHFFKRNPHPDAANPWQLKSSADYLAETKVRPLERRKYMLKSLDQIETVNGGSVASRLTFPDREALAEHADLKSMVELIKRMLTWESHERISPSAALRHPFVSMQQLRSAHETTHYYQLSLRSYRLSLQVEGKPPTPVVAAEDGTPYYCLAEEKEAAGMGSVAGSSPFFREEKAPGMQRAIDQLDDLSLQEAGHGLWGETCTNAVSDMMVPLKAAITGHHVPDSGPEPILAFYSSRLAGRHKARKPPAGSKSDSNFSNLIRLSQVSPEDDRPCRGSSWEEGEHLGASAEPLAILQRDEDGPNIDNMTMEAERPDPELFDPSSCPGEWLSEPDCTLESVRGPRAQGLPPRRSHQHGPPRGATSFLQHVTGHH
The assay can be described thus: Selectivity interaction (ProQinase) EUB0000171b HIPK4.

The target in assay [3] is Mitogen-activated protein kinase kinase kinase 14 (Homo sapiens) (UniProt Q99558). The assay can be described thus: Selectivity interaction (ProQinase) EUB0000171b MAP3K14.
Mitogen-activated protein kinase kinase kinase 14 (Homo sapiens), sequence (Q99558 whole entry, looked up): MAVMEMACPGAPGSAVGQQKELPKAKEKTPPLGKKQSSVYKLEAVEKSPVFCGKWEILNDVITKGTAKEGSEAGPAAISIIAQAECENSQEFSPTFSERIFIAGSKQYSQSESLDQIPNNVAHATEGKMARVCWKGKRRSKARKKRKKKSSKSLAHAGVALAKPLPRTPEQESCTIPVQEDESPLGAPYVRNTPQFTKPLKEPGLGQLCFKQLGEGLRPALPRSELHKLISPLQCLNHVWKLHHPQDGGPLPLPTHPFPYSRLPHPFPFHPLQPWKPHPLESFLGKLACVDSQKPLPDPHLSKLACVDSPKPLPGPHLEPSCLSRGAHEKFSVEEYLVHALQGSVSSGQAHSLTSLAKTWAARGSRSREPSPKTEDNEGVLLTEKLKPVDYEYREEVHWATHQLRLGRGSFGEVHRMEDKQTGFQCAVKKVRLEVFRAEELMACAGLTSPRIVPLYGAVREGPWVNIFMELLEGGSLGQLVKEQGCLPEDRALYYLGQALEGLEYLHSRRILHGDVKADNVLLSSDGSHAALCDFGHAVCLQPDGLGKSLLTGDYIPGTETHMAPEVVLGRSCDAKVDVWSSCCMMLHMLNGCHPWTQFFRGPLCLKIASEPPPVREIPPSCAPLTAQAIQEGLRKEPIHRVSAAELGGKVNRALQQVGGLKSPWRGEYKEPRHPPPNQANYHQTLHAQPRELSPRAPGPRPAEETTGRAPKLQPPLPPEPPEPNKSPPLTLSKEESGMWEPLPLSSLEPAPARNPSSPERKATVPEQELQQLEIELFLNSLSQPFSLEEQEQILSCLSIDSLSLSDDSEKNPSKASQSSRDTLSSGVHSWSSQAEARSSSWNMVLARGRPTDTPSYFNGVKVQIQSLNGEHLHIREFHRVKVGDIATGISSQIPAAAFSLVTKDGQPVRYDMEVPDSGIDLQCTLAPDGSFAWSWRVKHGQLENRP
The target of assay [4] is Myosin light chain kinase, smooth muscle (Homo sapiens, UniProt Q15746). The assay can be described thus: Selectivity interaction (Ambit KINOMEscan and KiNATiv profiling in Jurkat cells) EUB0000090b MYLK. Format: cell-based. The note with it: at 1 µM.
Assay [5] deals with Serine/threonine-protein kinase PLK3 (Homo sapiens, UniProt Q9H4B4). As to the kind of experiment: Selectivity interaction (Ambit KINOMEscan and KiNATiv profiling in Jurkat cells) EUB0000090b PLK3. Particulars: at 1 µM. The class given is cell-based.
Assay [6] concerns the target Cyclin-dependent kinase 2/cyclin A (Homo sapiens, UniProt P24941). As to the kind of experiment: Selectivity interaction (Enyzmatic assay) EUB0000601a CDK2. Format: protein-complex assay.
For assay [7], the target named is Eukaryotic translation initiation factor 2-alpha kinase 1 (Homo sapiens) (UniProt Q9BQI3). As to the kind of experiment: Selectivity interaction (KinomeScan (DiscoverX)) EUB0000092b EIF2AK1. Particulars: at 10 µM.
The target of assay [8] is Serine/threonine-protein kinase MRCK alpha (Homo sapiens) (UniProt Q5VT25). The assay can be described thus: Selectivity interaction (KinomeScan (DiscoverX)) EUB0000655a CDC42BPA. The note with it: at 10 µM.
Assay [9] deals with STE20/SPS1-related proline-alanine-rich protein kinase (Homo sapiens) (UniProt Q9UEW8). As to the kind of experiment: Selectivity interaction (KinomeScan (DiscoverX)) EUB0000666a STK39. Particulars: at 10 µM.
The target of assay [10] is T2, N-lysine methyltransferase KMT5A (Homo sapiens) (UniProt Q9NQR1).
T2 sequence (whole entry): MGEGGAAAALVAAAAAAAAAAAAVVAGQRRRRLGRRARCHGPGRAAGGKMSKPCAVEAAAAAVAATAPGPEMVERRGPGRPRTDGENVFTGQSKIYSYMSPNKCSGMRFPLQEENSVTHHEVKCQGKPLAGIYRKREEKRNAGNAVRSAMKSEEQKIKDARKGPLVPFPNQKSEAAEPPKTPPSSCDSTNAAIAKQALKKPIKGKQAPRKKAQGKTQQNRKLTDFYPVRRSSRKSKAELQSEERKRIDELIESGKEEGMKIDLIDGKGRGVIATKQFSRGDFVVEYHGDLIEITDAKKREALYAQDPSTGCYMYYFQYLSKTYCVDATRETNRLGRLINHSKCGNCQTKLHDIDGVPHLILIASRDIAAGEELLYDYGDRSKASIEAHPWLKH
Particulars: at 10 µM.

Assay [11] concerns the target Ribosomal protein S6 kinase alpha-4 (Homo sapiens) (UniProt O75676). The assay can be described thus: Selectivity interaction (SelectScreen profiling (Invitrogen)) EUB0000607a RPS6KA4. The note with it: at 2 µM.
Assay [12] deals with Cyclin-dependent kinase 13 (Homo sapiens, UniProt Q14004). The assay can be described thus: Selectivity interaction (ActivX KiNativ screen (kinase selectivity in THP-1 cell lysates)) EUB0000639a CDK13. Format: subcellular. The note with it: lysate.
Cyclin-dependent kinase 13, sequence (Q14004 whole entry, looked up): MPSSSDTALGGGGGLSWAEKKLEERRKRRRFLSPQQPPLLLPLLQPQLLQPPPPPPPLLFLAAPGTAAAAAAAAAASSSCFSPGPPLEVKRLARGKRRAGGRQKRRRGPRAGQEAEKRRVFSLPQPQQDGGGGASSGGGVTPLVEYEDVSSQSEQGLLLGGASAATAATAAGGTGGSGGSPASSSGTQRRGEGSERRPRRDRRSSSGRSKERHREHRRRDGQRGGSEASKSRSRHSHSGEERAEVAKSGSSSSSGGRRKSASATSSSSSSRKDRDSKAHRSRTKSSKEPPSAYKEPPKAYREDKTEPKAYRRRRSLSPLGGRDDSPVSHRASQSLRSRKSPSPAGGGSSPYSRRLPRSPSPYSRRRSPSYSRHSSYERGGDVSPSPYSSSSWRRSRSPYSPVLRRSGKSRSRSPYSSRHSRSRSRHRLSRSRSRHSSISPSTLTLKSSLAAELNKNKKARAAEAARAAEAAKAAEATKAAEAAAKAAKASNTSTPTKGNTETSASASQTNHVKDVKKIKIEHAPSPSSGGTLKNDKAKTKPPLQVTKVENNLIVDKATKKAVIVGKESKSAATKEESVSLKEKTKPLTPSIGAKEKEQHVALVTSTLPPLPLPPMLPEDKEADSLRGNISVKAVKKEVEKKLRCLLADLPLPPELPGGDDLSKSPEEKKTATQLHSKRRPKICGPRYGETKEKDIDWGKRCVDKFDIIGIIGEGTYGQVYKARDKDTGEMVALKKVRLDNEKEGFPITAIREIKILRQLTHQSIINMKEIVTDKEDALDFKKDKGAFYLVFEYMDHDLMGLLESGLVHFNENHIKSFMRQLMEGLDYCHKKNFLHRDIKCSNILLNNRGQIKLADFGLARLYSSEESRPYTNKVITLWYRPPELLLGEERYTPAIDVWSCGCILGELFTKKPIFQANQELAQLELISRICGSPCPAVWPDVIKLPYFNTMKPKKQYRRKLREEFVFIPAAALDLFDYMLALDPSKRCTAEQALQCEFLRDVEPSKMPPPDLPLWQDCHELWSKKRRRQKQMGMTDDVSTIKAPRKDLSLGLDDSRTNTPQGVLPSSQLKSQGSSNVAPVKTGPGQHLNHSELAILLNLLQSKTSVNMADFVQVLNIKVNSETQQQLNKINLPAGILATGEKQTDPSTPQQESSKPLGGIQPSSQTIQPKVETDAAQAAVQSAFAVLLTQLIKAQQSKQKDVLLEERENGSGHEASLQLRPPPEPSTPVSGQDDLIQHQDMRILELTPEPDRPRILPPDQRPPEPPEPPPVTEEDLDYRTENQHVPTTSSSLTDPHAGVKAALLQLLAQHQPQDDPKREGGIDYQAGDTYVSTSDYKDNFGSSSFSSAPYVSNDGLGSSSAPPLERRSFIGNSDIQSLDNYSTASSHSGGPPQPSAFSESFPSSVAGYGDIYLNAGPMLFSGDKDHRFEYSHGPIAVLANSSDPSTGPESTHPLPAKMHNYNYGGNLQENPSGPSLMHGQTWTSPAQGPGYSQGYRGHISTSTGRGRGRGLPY
In assay [13] the target is Ribosomal protein S6 kinase alpha-2 (Homo sapiens) (UniProt Q15349). As to the kind of experiment: Selectivity interaction (Kinome Scan (DiscoverX)) EUB0000229b RPS6KA2. The note with it: at 10 µM.
The target in assay [14] is Serine/threonine-protein kinase Chk2 (Homo sapiens) (UniProt O96017). The assay can be described thus: Selectivity interaction (Kinase panel (DSF assay)) EUB0001559a CHEK2.
Assay [15] addresses Serine/threonine-protein kinase tousled-like 2 (Homo sapiens) (UniProt Q86UE8). The assay can be described thus: Selectivity interaction (KinomeScan (DiscoverX)) EUB0000595a TLK2. Particulars: at 10 µM.
In assay [16] the target is T3, Interleukin-1 receptor-associated kinase 3 (Homo sapiens) (UniProt Q9Y616).
T3 sequence (whole entry): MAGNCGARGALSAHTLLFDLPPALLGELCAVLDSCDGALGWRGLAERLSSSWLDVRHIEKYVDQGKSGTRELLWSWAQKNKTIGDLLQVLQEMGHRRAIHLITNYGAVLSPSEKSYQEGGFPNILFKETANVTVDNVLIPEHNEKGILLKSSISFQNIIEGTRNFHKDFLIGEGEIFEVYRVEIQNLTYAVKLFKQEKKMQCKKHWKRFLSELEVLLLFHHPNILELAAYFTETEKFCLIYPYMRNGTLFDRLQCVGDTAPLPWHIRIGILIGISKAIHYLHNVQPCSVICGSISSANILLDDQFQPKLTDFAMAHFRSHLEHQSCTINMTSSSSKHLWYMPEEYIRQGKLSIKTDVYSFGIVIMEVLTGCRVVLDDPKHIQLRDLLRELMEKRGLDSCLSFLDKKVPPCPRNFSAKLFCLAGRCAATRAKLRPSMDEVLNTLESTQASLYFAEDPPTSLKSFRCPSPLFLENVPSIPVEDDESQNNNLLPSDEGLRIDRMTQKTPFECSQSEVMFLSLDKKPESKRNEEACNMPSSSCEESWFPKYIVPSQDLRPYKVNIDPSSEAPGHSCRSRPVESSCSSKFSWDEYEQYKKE
The assay can be described thus: Selectivity interaction (KinomeScan (DiscoverX)) EUB0001619a IRAK3. Particulars: at 1 µM.

Assay [17] addresses Serine/threonine-protein kinase N1 (Homo sapiens, UniProt Q16512). As to the kind of experiment: Selectivity interaction (KinomeScan (DiscoverX)) EUB0001619a PKN1. The note with it: at 1 µM.

Cyclin-dependent kinase 5/CDK5 activator 1 (Homo sapiens), sequence (Q00535 whole entry): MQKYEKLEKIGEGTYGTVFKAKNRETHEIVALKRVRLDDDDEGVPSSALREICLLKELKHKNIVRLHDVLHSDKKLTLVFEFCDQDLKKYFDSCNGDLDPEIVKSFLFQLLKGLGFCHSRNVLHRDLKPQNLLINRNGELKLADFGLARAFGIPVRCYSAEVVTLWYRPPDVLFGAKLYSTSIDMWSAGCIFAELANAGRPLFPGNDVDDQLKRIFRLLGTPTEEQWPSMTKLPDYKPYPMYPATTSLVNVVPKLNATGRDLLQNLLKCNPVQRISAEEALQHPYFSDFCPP
Cyclin-dependent kinase 5/CDK5 activator 1 (Homo sapiens), sequence (Q15078 99-307 partner limits assumed): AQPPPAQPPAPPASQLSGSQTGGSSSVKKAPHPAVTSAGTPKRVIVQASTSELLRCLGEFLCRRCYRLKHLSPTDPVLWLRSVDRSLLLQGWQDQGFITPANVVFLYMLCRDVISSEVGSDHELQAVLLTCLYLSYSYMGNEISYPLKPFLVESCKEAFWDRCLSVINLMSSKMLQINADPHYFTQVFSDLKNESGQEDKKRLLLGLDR
Serine/threonine-protein kinase N1, sequence (Q16512 2-942 limits assumed): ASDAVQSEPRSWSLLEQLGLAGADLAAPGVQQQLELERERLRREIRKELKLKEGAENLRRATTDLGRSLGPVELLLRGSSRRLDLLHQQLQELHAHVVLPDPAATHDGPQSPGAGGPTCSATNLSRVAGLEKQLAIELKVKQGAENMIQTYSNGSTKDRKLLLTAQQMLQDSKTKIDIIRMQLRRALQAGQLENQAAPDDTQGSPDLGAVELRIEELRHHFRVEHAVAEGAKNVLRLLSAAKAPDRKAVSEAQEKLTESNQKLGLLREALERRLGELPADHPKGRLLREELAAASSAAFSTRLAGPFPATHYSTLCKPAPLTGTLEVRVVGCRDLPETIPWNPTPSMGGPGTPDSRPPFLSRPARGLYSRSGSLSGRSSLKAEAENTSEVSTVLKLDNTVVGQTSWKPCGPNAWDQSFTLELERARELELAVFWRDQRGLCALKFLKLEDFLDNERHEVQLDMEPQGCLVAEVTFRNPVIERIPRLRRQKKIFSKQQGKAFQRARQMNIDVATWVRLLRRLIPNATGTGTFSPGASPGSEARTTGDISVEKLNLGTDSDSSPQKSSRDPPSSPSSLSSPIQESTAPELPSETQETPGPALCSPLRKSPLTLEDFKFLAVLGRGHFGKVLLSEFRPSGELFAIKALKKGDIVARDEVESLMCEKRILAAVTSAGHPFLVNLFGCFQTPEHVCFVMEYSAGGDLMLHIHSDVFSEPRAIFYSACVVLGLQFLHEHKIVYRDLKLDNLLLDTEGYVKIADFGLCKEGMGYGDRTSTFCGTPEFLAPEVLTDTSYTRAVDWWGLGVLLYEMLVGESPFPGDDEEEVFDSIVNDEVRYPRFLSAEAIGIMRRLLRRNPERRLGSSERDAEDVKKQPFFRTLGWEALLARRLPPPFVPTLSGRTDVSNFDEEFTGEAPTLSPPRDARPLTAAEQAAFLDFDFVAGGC
Ribosomal protein S6 kinase alpha-4 (Homo sapiens), sequence (O75676 whole entry, looked up): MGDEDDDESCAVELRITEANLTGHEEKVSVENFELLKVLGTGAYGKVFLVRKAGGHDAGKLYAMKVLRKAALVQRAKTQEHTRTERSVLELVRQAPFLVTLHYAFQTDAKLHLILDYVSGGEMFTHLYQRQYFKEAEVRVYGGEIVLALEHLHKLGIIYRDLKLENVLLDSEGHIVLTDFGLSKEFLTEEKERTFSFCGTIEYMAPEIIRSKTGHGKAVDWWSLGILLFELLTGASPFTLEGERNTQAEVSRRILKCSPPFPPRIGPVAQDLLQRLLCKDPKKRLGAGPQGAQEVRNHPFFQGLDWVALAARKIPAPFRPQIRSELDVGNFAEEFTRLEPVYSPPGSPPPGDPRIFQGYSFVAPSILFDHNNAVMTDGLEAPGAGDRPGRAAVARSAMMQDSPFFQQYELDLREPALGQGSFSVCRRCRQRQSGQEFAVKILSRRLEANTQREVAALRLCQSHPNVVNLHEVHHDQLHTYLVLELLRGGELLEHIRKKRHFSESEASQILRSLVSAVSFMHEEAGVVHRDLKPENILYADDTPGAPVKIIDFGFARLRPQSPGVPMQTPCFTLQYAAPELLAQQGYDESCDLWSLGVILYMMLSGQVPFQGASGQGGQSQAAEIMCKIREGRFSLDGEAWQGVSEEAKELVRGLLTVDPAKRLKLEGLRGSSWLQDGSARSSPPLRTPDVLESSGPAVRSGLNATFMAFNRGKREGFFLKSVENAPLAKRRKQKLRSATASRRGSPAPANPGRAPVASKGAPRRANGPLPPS

Take `C=CC(=O)Nc1cccc(C(=O)Nc2ccc(Nc3cc(-c4[nH]c(SC)nc4C)ccn3)cc2)c1`: the % of control is 77% in [1] (at 1 µM); 54% in assay [1] (at 5 µM); 76% in [2] (at 1 µM); 37% in [2] (at 5 µM); 91% in assay [3] (at 1 µM); 87% in assay [3] (at 5 µM).

In the case of `CN(C)C/C=C/C(=O)Nc1ccc(C(=O)N2CCCC(Nc3ncc(Cl)c(-c4c[nH]c5ccccc45)n3)C2)cc1` (centres undefined), the % of control turned out to be 78% in assay [4] and 86% in assay [5].

Usually pIC50 stands for the IC50 on a negative log10 scale, so that one unit is a factor of ten. Low values mean a high IC50, high ones a low IC50. For `CCc1cc(Nc2nccc(-c3c(-c4ccc(OC)c(C(=O)Nc5c(F)cccc5F)c4)nc4ccccn34)n2)c(OC)cc1N1CCC(N2CCN(S(C)(=O)=O)CC2)CC1`, the pIC50 in assay [6] is under 5.00.

`CCC(=O)N1CCN(c2ccc(-n3c(=O)ccc4cnc5ccc(-c6cnc7ccccc7c6)cc5c43)cc2C(F)(F)F)CC1` returned a % of control in assay [7] of 57%.

In [8], `CN(C)CCOc1ccc(-c2nc(-c3ccncc3)c(-c3ccc4c(c3)CC/C4=N\O)[nH]2)cc1` gave a % of control of 78%.

In the case of `O=C(NOC[C@H](O)CO)c1ccc(F)c(F)c1Nc1ccc(I)cc1F`, the % of control in [9] was 96%.

For `CNCCN1CCC(c2cc(CN(C)C(=O)c3cccc(Oc4ccccc4)c3)ccn2)CC1`, the % activity in [10] is over 90%.

As to `CNC(=O)Nc1ccc(-c2nc(N3CC4CCC(C3)O4)c3cnn(C4CCC5(CC4)OCCO5)c3n2)cc1`, the % of inhibition in assay [11] amounted to 1%.

On to `CC[C@@H]1[C@H](F)C(=O)N[C@@H]1COc1nccc2cc(C(N)=O)c(OC)cc12` [ZIMLOVISERTIB], for which the % of inhibition in assay [12] (at 0.01 µM) was 3.8%; in [12] (at 0.04 µM) it was -10.7%; in [12] (at 0.2 µM), -1.5%; in [12] (at 1 µM), -2.6%; in assay [12] (at 5 µM), 5.1%.

In assay [13], `COc1cc(N(C)c2ccnc3ccc(C(F)(F)F)cc23)cc(OC)c1OC` yielded a % binding of 84%.

For `CN(C(=O)c1cnn2cccnc12)c1cc2c(cc1N1CCOCC1)C(=O)N(C[C@@H](F)C(C)(C)O)C2`, in assay [14], the dTM was determined as 0.2 K.

Consider `COCC(=O)NC/C=C/c1ccc2ncnc(Nc3ccc(Oc4ccc(C)nc4)c(C)c3)c2c1` [CP-724714], for which the % of control in assay [15] was 100%.

Consider `N#Cc1cccc(-c2c[nH]c3ncnc(N4CCOCC4)c23)c1`, for which the % of control in assay [16] was 74%; in assay [17] it was 62%.
